Results: PubChem BioAssay AID2060901 (Molecular Pharmacology Branch, DTP, NCI, 2025)

Tested on: 422866-222-R5-J1-PDC complex spheroids viability
Test: Anticancer human tumor 422866-222-R5-J1-PDC patient-derived pancreatic adenocarcinoma cell line growth inhibition [RAS]
Details: for IC50: curve of first compound; for viability, T/C: stronger effect = lower value
Description: RAS pathway inhibitors in Combinations in Complex Spheroids
A high-throughput screen of multi-cell type tumor spheroids was designed to identify active combinations of RAS pathway inhibitors and targeted small molecules. Complex spheroids include a stromal component modeled by human endothelial cells (HUVEC) and fibroblasts modeled by human mesenchymal stem cells (MSCs). The concentration ranges selected for each drug and investigational agent were based upon clinically achievable concentrations if the clinical Cmax of the agent was known.
Compounds. The drugs and investigational agents: abemaciclib (NSC768073), cobimetinib (NSC768068), divarasib (GDC6063, NSC841802), docetaxel (NSC628503), GDC-1971 (RLY-1971, NSC841576), gemcitabine (NSC613327), inavolisib (NSC800729), ipatasertib (NSC767898), KB-0742 (NSC834161), MRTX-1133 (NSC836407), osimertinib (NSC779217), RMC-4630 (NSC839698), RMC-6236 (NSC851965), RMC-6291 (NSC852671), Ro-3306 (NSC812927), sapanisertib (NSC764658), SN-38 (NSC673596), staurosporine (NSC755774), SY5609 (NSC837396), and tovorafenib (DAY101, NSC766906), were obtained from the National Cancer Institute (NCI) Developmental Therapeutics Program Chemical Repository. The FDA-approved anticancer drug set is available from the NCI Developmental Therapeutics Program. […] The stock solutions were prepared in dimethyl sulfoxide (DMSO, Sigma-Aldrich, St. Louis, MO, cat. D2650) at 800-fold the tested concentration and stored at -70 degrees C prior to their use. All drugs and investigational agents were tested over a range starting from a high concentration at or near the clinical Cmax and decreasing in half-log increments. If the clinical Cmax for an agent had not been determined, the highest concentration tested was 10 microM.
Cell Culture. All cells were maintained in an incubator at 37 degrees C and 5% CO2 with 95% humidity. The PDC lines were cultured according to standard operating procedures established by the NCI PDMR. All PDCs were thawed and cultured in Matrigel-coated flasks prepared with a working solution of 1X Ham's F-12 nutrient mix, without supplementation (Invitrogen, Waltham, MA, cat. 11765054), 100 U/mL penicillin-streptomycin (Invitrogen, cat. 15140122), and 2.5% Matrigel (Corning Inc., Corning, NY, cat. 354248) for the first three passages. The 362531-283-R-J2-PDC and 782815-120-R-J1-PDC lines were cultured in 6C/Colon 1B media, which includes advanced DMEM/F-12 (Thermo Fisher Scientific, cat. 12634028), 10 mM HEPES (Thermo Fisher Scientific, cat. 15630080), 1X GlutaMAX supplement (Thermo Fisher Scientific, cat. 35050061), 0.1 mg/mL primocin (InvivoGen, San Diego, CA, cat. ant-pm-2), 10% defined fetal bovine serum, heat inactivated (HyClone Laboratories Inc., Logan, UT, cat. SH30070.03HI), 50% L-WRN conditioned media (ATCC, cat. CRL-3276), 1.25 mM N-Acetyl-L-cysteine (Sigma-Aldrich, cat. A9165), 10 mM nicotinamide (Sigma-Aldrich, cat. N0636), 1X B-27 supplement (Thermo Fisher Scientific, cat. 17504044), 1X N-2 supplement (Thermo Fisher Scientific, cat. 17502048), 50 ng/mL human EGF (Thermo Fisher Scientific, cat. PHG0311), and 10 microM Y-27632 dihydrochloride (Tocris Bioscience, cat. 1254). The K12877-001-R-J1-PDC line was cultured in 6I media, which includes all 6C/Colon 1B media plus 10 ng/mL human FGF-10 (PeproTech, cat. 100-26), 1 ng/mL human FGF-2 (PeproTech, cat. 100-18B), 1 µM prostaglandin E2 (Tocris Bioscience, cat. 2296), […] hydrocortisone (Sigma-Aldrich, cat. H4001), and […] bovine insulin (Sigma-Aldrich, cat. I6634). The K86415-001-R-J1-PDC line was cultured in 6D media, which includes all 6C/Colon 1B media components minus the L-WRN conditioned media. The 485176-168-R4-J1-PDC was cultured in PANC media, which includes all 6C/Colon 1B media plus 100 ng/mL human FGF-10 (PeproTech, cat. 100-26), 500 nM SB-431542 (Selleckchem, cat. S1067), and 10 nM gastrin (Tocris Bioscience, cat. 3006). […]
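Further: spheroids exposed to compounds for 7 days.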
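Wherever viability, T/C is given: 100% = DMSO vehicle control viability.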

Compound: NC1c2ccccc2OC12CCN(c1cnc3c(N4CCCc5ncccc54)n[nH]c3n1)CC2 (centres undefined) + C=CC(=O)N1CCN(c2nc(OCC3CCCN3C)nc3c(F)c(-c4nc(N)cc(C)c4C(F)(F)F)c(Cl)cc23)C(C)C1
- IC50 (second compound 0.00316 µM): < 31.6 nM
- IC50 (second compound 0.01 µM): < 31.6 nM
- IC50 (second compound 0.0316 µM): < 31.6 nM
- IC50 (second compound 0.1 µM): < 31.6 nM
- IC50 (second compound 0.316 µM): < 31.6 nM
- IC50 (second compound 1 µM): < 31.6 nM
- viability, T/C (second compound 0.00316 µM, first compound 0.0316 µM): 21.3%
- viability, T/C (second compound 0.00316 µM, first compound 0.1 µM): 17.9%
- viability, T/C (second compound 0.00316 µM, first compound 0.316 µM): 18.1%
- viability, T/C (second compound 0.00316 µM, first compound 1 µM): 16.3%
- viability, T/C (second compound 0.00316 µM, first compound 3.16 µM): 13.4%
- viability, T/C (second compound 0.00316 µM, first compound 10 µM): 16.3%
- viability, T/C (second compound 0.01 µM, first compound 0.0316 µM): 20.1%
- viability, T/C (second compound 0.01 µM, first compound 0.1 µM): 17.6%
- viability, T/C (second compound 0.01 µM, first compound 0.316 µM): 13.2%
- viability, T/C (second compound 0.01 µM, first compound 1 µM): 16.3%
- viability, T/C (second compound 0.01 µM, first compound 3.16 µM): 15.4%
- viability, T/C (second compound 0.01 µM, first compound 10 µM): 16.6%
- viability, T/C (second compound 0.0316 µM, first compound 0.0316 µM): 20.4%
- viability, T/C (second compound 0.0316 µM, first compound 0.1 µM): 18.5%
- viability, T/C (second compound 0.0316 µM, first compound 0.316 µM): 13.9%
- viability, T/C (second compound 0.0316 µM, first compound 1 µM): 14.5%
- viability, T/C (second compound 0.0316 µM, first compound 3.16 µM): 15.9%
- viability, T/C (second compound 0.0316 µM, first compound 10 µM): 14.8%
- viability, T/C (second compound 0.1 µM, first compound 0.0316 µM): 18.3%
- viability, T/C (second compound 0.1 µM, first compound 0.1 µM): 15.1%
- viability, T/C (second compound 0.1 µM, first compound 0.316 µM): 15.3%
- viability, T/C (second compound 0.1 µM, first compound 1 µM): 12.8%
- viability, T/C (second compound 0.1 µM, first compound 3.16 µM): 16.3%
- viability, T/C (second compound 0.1 µM, first compound 10 µM): 14.2%
- viability, T/C (second compound 0.316 µM, first compound 0.0316 µM): 18.4%
- viability, T/C (second compound 0.316 µM, first compound 0.1 µM): 16.6%
- viability, T/C (second compound 0.316 µM, first compound 0.316 µM): 14.5%
- viability, T/C (second compound 0.316 µM, first compound 1 µM): 13.6%
- viability, T/C (second compound 0.316 µM, first compound 3.16 µM): 14.2%
- viability, T/C (second compound 0.316 µM, first compound 10 µM): 12.9%
- viability, T/C (second compound 1 µM, first compound 0.0316 µM): 18.7%
- viability, T/C (second compound 1 µM, first compound 0.1 µM): 14.1%
- viability, T/C (second compound 1 µM, first compound 0.316 µM): 16.4%
- viability, T/C (second compound 1 µM, first compound 1 µM): 15.8%
- viability, T/C (second compound 1 µM, first compound 3.16 µM): 14.9%
- viability, T/C (second compound 1 µM, first compound 10 µM): 15.9%

Compound: C=CC(=O)Nc1cc(Nc2nccc(-c3cn(C)c4ccccc34)n2)c(OC)cc1N(C)CCN(C)C + CCn1c(-c2cccnc2C(C)OC)c2c3cc(ccc31)N1CCOC(CC(NC(=O)C(C(C)C)N(C)C(=O)C3(F)CCN(C(=O)C#CC(C)(C)N(C)C)CC3)C(=O)N3CCCC(N3)C(=O)OCC(C)(C)C2)C1
- IC50 (second compound 0.000949 µM): < 3.16 nM
- IC50 (second compound 0.003 µM): < 3.16 nM
- IC50 (second compound 0.00949 µM): < 3.16 nM
- IC50 (second compound 0.03 µM): < 3.16 nM
- IC50 (second compound 0.0949 µM): < 3.16 nM
- IC50 (second compound 0.3 µM): < 3.16 nM
- viability, T/C (second compound 0.000949 µM, first compound 0.00316 µM): 26.2%
- viability, T/C (second compound 0.000949 µM, first compound 0.01 µM): 27.5%
- viability, T/C (second compound 0.000949 µM, first compound 0.0316 µM): 26.2%
- viability, T/C (second compound 0.000949 µM, first compound 0.1 µM): 23%
- viability, T/C (second compound 0.000949 µM, first compound 0.316 µM): 19.7%
- viability, T/C (second compound 0.000949 µM, first compound 1 µM): 22.6%
- viability, T/C (second compound 0.003 µM, first compound 0.00316 µM): 25%
- viability, T/C (second compound 0.003 µM, first compound 0.01 µM): 19.2%
- viability, T/C (second compound 0.003 µM, first compound 0.0316 µM): 23.7%
- viability, T/C (second compound 0.003 µM, first compound 0.1 µM): 16.8%
- viability, T/C (second compound 0.003 µM, first compound 0.316 µM): 14.6%
- viability, T/C (second compound 0.003 µM, first compound 1 µM): 15.2%
- viability, T/C (second compound 0.00949 µM, first compound 0.00316 µM): 21.9%
- viability, T/C (second compound 0.00949 µM, first compound 0.01 µM): 21.4%
- viability, T/C (second compound 0.00949 µM, first compound 0.0316 µM): 17.2%
- viability, T/C (second compound 0.00949 µM, first compound 0.1 µM): 16.4%
- viability, T/C (second compound 0.00949 µM, first compound 0.316 µM): 13.8%
- viability, T/C (second compound 0.00949 µM, first compound 1 µM): 16.4%
- viability, T/C (second compound 0.03 µM, first compound 0.00316 µM): 29.2%
- viability, T/C (second compound 0.03 µM, first compound 0.01 µM): 19.8%
- viability, T/C (second compound 0.03 µM, first compound 0.0316 µM): 14.6%
- viability, T/C (second compound 0.03 µM, first compound 0.1 µM): 15.8%
- viability, T/C (second compound 0.03 µM, first compound 0.316 µM): 15.9%
- viability, T/C (second compound 0.03 µM, first compound 1 µM): 15.4%
- viability, T/C (second compound 0.0949 µM, first compound 0.00316 µM): 18.7%
- viability, T/C (second compound 0.0949 µM, first compound 0.01 µM): 16.2%
- viability, T/C (second compound 0.0949 µM, first compound 0.0316 µM): 15.5%
- viability, T/C (second compound 0.0949 µM, first compound 0.1 µM): 11.9%
- viability, T/C (second compound 0.0949 µM, first compound 0.316 µM): 13.5%
- viability, T/C (second compound 0.0949 µM, first compound 1 µM): 13.1%
- viability, T/C (second compound 0.3 µM, first compound 0.00316 µM): 15.2%
- viability, T/C (second compound 0.3 µM, first compound 0.01 µM): 15.7%
- viability, T/C (second compound 0.3 µM, first compound 0.0316 µM): 17.4%
- viability, T/C (second compound 0.3 µM, first compound 0.1 µM): 13.8%
- viability, T/C (second compound 0.3 µM, first compound 0.316 µM): 13.7%
- viability, T/C (second compound 0.3 µM, first compound 1 µM): 13.2%
